This is an account of results in ChEMBL document CHEMBL1201862, “PubChem BioAssay data set” (2004).

Some test systems named below: A498; ACHN; CCRF-CEM; COLO 205; EKVX; HL-60; HOP-62; HOP-92; K562; KM12; MCF7; MDA-MB-435; MDA-N; MOLT-4; NCI-H226; NCI-H460; OVCAR-5; SF-295; SF-539; SNB-19.
Common to all, as to assay: DTP human tumour cell line panel, 48 h

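Grown in 96-well plates, cells were treated for 48 hours with each compound at five concentrations. Insufficient inhibition: endpoint recorded as highest concentration tested. GI50 marks 50% less growth.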 The source made the active and inactive calls. Rule as the data show it: active = GI50 up to about 1.1 µM and inactive = higher. Where only a bound is given, the exact number is not on record here.

Regarding `CN(/N=C(\C(=O)O)c1ccccc1)C1=NCCCCN1`, the GI50 with A498, in the assay with ACHN, in the assay with CCRF-CEM, in the assay on COLO 205, with EKVX and in the assay with HL-60 was > 100 µM (inactive) in each case. For the same compound, the GI50 in the assay with HOP-62, in the assay with HOP-92, in the assay on K562, in the assay with KM12, in the assay on MCF7 and with MDA-MB-435 was > 100 µM (inactive) in each case. Besides, the GI50 in the assay with MDA-N, with MOLT-4, with NCI-H226, in the assay on NCI-H460, in the assay on OVCAR-5 and with SF-295 was > 100 µM (inactive) each time. In the assay on SF-539, the GI50 (commonly the concentration giving 50% growth inhibition) is > 100 µM (inactive).
With `COC(=O)[C@]1(C)CCC[C@@]2(C)[C@@H]3C[C@@H]4[C@H]5C[C@@]3(CC[C@@H]21)C[C@@]45C`, the GI50 with A498 is 17.2 µM (inactive); with ACHN it was 15.8 µM (inactive); with CCRF-CEM, 18 µM (inactive); in the assay on COLO 205, 20.5 µM (inactive); in the assay on EKVX, 15.6 µM (inactive); in the assay on HL-60 it was 2.08 µM (inactive). Further, the GI50 was 17.8 µM (inactive) with HOP-62; 15.2 µM (inactive) in the assay with HOP-92; 0.643 µM (active) with K562; 14.9 µM (inactive) in the assay on MCF7; 18.3 µM (inactive) with MDA-MB-435; 17.9 µM (inactive) in the assay with MDA-N. In addition, the GI50 was 14.5 µM (inactive) in the assay on MOLT-4; 15.8 µM (inactive) in the assay on NCI-H226; 18 µM (inactive) in the assay with OVCAR-5; 15.2 µM (inactive) in the assay on SF-295; 22.1 µM (inactive) in the assay with SF-539; 13.9 µM (inactive) with SNB-19.
`Cc1ccc(S(=O)(=O)N2CCCSCCN(S(=O)(=O)c3ccc(C)cc3)CCCSCC2)cc1`: the GI50 with A498, in the assay with ACHN, in the assay with COLO 205, in the assay on EKVX, in the assay on HL-60 and in the assay on HOP-62 was > 100 µM (inactive) throughout. Besides, the GI50 with HOP-92, in the assay on K562, in the assay on KM12, in the assay on MCF7, with MDA-MB-435 and in the assay with MDA-N was > 100 µM (inactive) each time. Moreover, the GI50 in the assay with MOLT-4, in the assay with NCI-H226, with NCI-H460, with OVCAR-5, in the assay on SF-295 and with SF-539 was > 100 µM (inactive) in each case. In addition, the GI50 in the assay on SNB-19 is > 100 µM (inactive).
Take `O=C(CC(=O)Nc1cccc(C(=O)O)c1)Nc1cccc(C(=O)O)c1`: the GI50 with A498, in the assay with ACHN, with CCRF-CEM, with COLO 205, in the assay with EKVX and in the assay on HL-60 was > 100 µM (inactive) in each case. Besides, the GI50 in the assay with HOP-62, in the assay on HOP-92, in the assay with K562, with KM12, in the assay on MCF7 and with MDA-MB-435 was > 100 µM (inactive) each time. Besides, the GI50 in the assay on MDA-N, in the assay with MOLT-4, in the assay with NCI-H226, in the assay with NCI-H460, in the assay with SF-295 and in the assay on SF-539 was > 100 µM (inactive) each time. The GI50 in the assay with SNB-19 is > 100 µM (inactive).
In the case of `CC(C)=C1C(=O)c2c(Cl)sc(Cl)c2C1=O`, the GI50 in the assay on A498 is > 100 µM (inactive); in the assay on ACHN, 21 µM (inactive); in the assay on CCRF-CEM, 26.1 µM (inactive); with COLO 205, 20.9 µM (inactive); in the assay with EKVX, 27.7 µM (inactive); in the assay with HL-60 it was 31.3 µM (inactive). Moreover, the GI50 with HOP-62 was 42.4 µM (inactive); with HOP-92 it was 22.6 µM (inactive); in the assay with K562 it was 37.6 µM (inactive); with KM12 it was 16.5 µM (inactive); in the assay with MCF7 it was 41.2 µM (inactive); with MDA-MB-435, 18.6 µM (inactive). Further, the GI50 is 22.6 µM (inactive) in the assay on MDA-N; 36.6 µM (inactive) with MOLT-4; 35.6 µM (inactive) with NCI-H226; > 100 µM (inactive) in the assay on NCI-H460; > 100 µM (inactive) in the assay on OVCAR-5; 39.5 µM (inactive) in the assay on SF-295. Besides, the GI50 with SF-539 is 22.3 µM (inactive).
Consider `O=C(CC(C(=O)c1ccsc1)c1ccccc1)c1ccccc1` (stereo not drawn), for which the GI50 was 25.8 µM (inactive) in the assay with A498; > 100 µM (inactive) in the assay on ACHN; 69.2 µM (inactive) in the assay with CCRF-CEM; > 100 µM (inactive) in the assay with COLO 205; > 100 µM (inactive) in the assay with EKVX; 0.484 µM (active) in the assay with HL-60. Also, the GI50 was > 100 µM (inactive) in the assay with HOP-62; > 100 µM (inactive) in the assay on HOP-92; > 100 µM (inactive) in the assay with K562; 49.9 µM (inactive) in the assay with KM12; > 100 µM (inactive) with MCF7; 54.2 µM (inactive) with MDA-MB-435. Also, the GI50 in the assay with MDA-N is > 100 µM (inactive); with MOLT-4 it was > 100 µM (inactive); with NCI-H226 it was 74.1 µM (inactive); in the assay on NCI-H460 it was > 100 µM (inactive); in the assay with OVCAR-5, > 100 µM (inactive); with SF-295 it was 76.9 µM (inactive). For the same compound, the GI50 in the assay on SF-539 was > 100 µM (inactive).
For the compound `O=C(/C=C/c1ccccc1)CCc1c(O)c2ccccc2oc1=O`, the GI50 was 74.5 µM (inactive) with A498; > 100 µM (inactive) in the assay with ACHN; 45.4 µM (inactive) with CCRF-CEM; 89.1 µM (inactive) in the assay on COLO 205; 83 µM (inactive) in the assay on EKVX; > 10 µM (inactive) in the assay on HL-60. Besides, the GI50 with HOP-92 was 18 µM (inactive); in the assay with K562, 49.4 µM (inactive); in the assay with KM12, 40.8 µM (inactive); in the assay on MCF7, 60.4 µM (inactive); in the assay with MDA-MB-435 it was 67.9 µM (inactive); with MDA-N it was 71.9 µM (inactive). The GI50 with MOLT-4 was 27.7 µM (inactive); in the assay on NCI-H226 it was > 100 µM (inactive); in the assay on NCI-H460 it was 87.9 µM (inactive); in the assay with OVCAR-5, > 100 µM (inactive); with SF-295, > 100 µM (inactive); in the assay with SF-539, > 100 µM (inactive). The GI50 with SNB-19 was > 100 µM (inactive).
Regarding `CCOc1cccc(-c2cc(O)c3cc4c(cc3n2)OCO4)c1`, the GI50 is 78.9 µM (inactive) with A498; 0.51 µM (active) with ACHN; 0.084 µM (active) in the assay with CCRF-CEM; 0.206 µM (active) in the assay on COLO 205; 10.5 µM (inactive) in the assay with EKVX; 0.044 µM (active) with HL-60. Further, the GI50 is 0.621 µM (active) in the assay on HOP-62; 0.264 µM (active) in the assay with HOP-92; 0.0516 µM (active) in the assay on K562; 0.267 µM (active) in the assay with KM12; 0.673 µM (active) in the assay with MCF7; 0.0164 µM (active) in the assay with MDA-MB-435. Also, the GI50 was 0.0214 µM (active) in the assay on MDA-N; 0.296 µM (active) in the assay on MOLT-4; 0.438 µM (active) in the assay on NCI-H226; 0.318 µM (active) in the assay with NCI-H460; 0.0735 µM (active) in the assay on SF-295; 0.13 µM (active) in the assay on SF-539. Moreover, the GI50 with SNB-19 is 0.321 µM (active).
Regarding `O=C1CC2C(=O)c3ccccc3CC2c2ccccc21` (stereo not drawn), the GI50 with A498 is 48.8 µM (inactive); in the assay with ACHN, 30.7 µM (inactive); in the assay with EKVX, 46.1 µM (inactive); in the assay on HL-60, 17.9 µM (inactive); in the assay with HOP-62 it was > 100 µM (inactive); in the assay on HOP-92, 16.4 µM (inactive). The GI50 in the assay with K562 was 21.3 µM (inactive); with KM12 it was 40.6 µM (inactive); in the assay on MCF7 it was 37.2 µM (inactive); with MDA-MB-435, 24.1 µM (inactive); in the assay with MDA-N, 36.3 µM (inactive); in the assay with MOLT-4, 22.4 µM (inactive). The GI50 with NCI-H226 was 36.6 µM (inactive); in the assay on NCI-H460, 33 µM (inactive); in the assay with OVCAR-5, > 100 µM (inactive); in the assay with SF-295, 49.2 µM (inactive); in the assay with SF-539, 32.7 µM (inactive); with SNB-19, > 100 µM (inactive).
`CCCCON1C[C@H](OC(C)=O)C(OC(C)=O)[C@H](OC(C)=O)C1` (stereo partly drawn): the GI50 in the assay on A498, in the assay with ACHN, in the assay on CCRF-CEM, with COLO 205, with EKVX and in the assay on HL-60 was > 100 µM (inactive) each time. Also, the GI50 in the assay with HOP-62, in the assay on HOP-92, in the assay with K562, with KM12, in the assay with MCF7 and in the assay with MDA-MB-435 was > 100 µM (inactive) each time. The GI50 in the assay with MDA-N, with MOLT-4, with NCI-H226, in the assay with NCI-H460, in the assay on SF-295 and with SF-539 was > 100 µM (inactive) in each case. For the same compound, the GI50 in the assay on SNB-19 was > 100 µM (inactive).
